Data from PMC6005341, “Identification of “sarsasapogenin-aglyconed” timosaponins as novel Aβ-lowering modulators of amyloid precursor protein processing” (Chemical Science, 2016).

Tested on: γ-secretase-mediated cleavage of Notch1
Assay: Notch cleavage by γ-secretase in N2A-APPswe cells transfected with NotchΔE (immunoblot)
Format: cell-based
Conditions: 18 h
Method: rabbit antibody (Millipore). The immunoreactivities were detected using enhanced chemiluminescence reagents (GE Health care).
For examination of notch cleavage by γ-secretase, N2A-APPswe cells were transfected with myc-tagged NotchΔE construct (pSC2 EMV-6MT, provided by Prof. Raphael Kopan, Washington University, St. Louis, MO) using Fugene HD (Roche). Cells were then treated with timosaponins for 18 h and the expression of NotchΔE and NICD were examined by immunoblot analysis using myc-tagged antibodies.
Aβ ELISA: Aβ concentrations in conditioned medium were assayed using ELISA kits for human Aβ40, human Aβ42 (ultrasensitive) (Invitrogen), human Aβ38 (MyBioSource) (in N2A-APPswe cells) or Wako High Sensitive Aβx-42 ELISA kit (in Rat primary cortical neuron culture). The viability of the N2A-APPswe and Primary cortical neurons were determined by MTT and LDH release assays, respectively. No significant effect of viability of the neuron […]
β-Secretase assays: Confluent N2A-APPswe cells were harvested and homogenized with 50 mM MES, pH5.5. […] The β-secretase activities were assayed by adding 10 µM fluorogenic β-secretase substrate (Millipore) to the reaction mixtures and the fluorescence (excitation, 380; emission, 460) were measured. β-Secretase assays were also performed using purified BACE1 (Millipore) at 100 ng in a buffer containing 50 mM MES, pH 5.5. […]

**Q.** Which “production of NICD” value does the source give for `C[C@H](NC(=O)Cc1cc(F)cc(F)c1)C(=O)N[C@H](C(=O)OC(C)(C)C)c1ccccc1` [DAPT] here?
**A.** The value was “completely blocked”.
